Assay results as given in ChEMBL document CHEMBL1201862, “PubChem BioAssay data set” (2004).
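These data come from cells grown in 96-well plates and exposed to compound for 48 hours at five concentrations. GI50 marks 50% less growth.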 Activity calls are given as the source filed them. Rule as the data show it: active = GI50 up to about 1.1 µM and inactive = higher.

What was measured:
Assay in all cases: NCI anticancer screen, dose series, 48 h
[1] = system: IGROV-1
[2] = system: U-251
[3] = system: HCT-116
[4] = system: DU-145
[5] = system: UO-31
[6] = system: PC-3
[7] = system: SK-MEL-28
[8] = system: UACC-257
[9] = system: HT-29
[10] = system: OVCAR-4
[11] = system: MOLT-4
[12] = system: SK-MEL-2
[13] = system: COLO 205
[14] = system: A498
[15] = system: ACHN
[16] = system: SK-OV-3
[17] = system: A549
[18] = system: OVCAR-3
[19] = system: SNB-75
[20] = system: HOP-62

SMILES: NC1CC(=O)c2csc(Br)c21 (stereo not given)
- GI50 [1]: 7.76 µM (inactive)
- GI50 [2]: 18.1 µM (inactive)
- GI50 [3]: 11.2 µM (inactive)
- GI50 [4]: 20.7 µM (inactive)
- GI50 [5]: 16 µM (inactive)
- GI50 [6]: 14 µM (inactive)
- GI50 [7]: 18.5 µM (inactive)
- GI50 [8]: 17.3 µM (inactive)
- GI50 [9]: 19.6 µM (inactive)
- GI50 [10]: 16.5 µM (inactive)
- GI50 [11]: 15.1 µM (inactive)
- GI50 [12]: 16 µM (inactive)
- GI50 [13]: 16.5 µM (inactive)
- GI50 [14]: > 36.5 µM (inactive)
- GI50 [15]: 16.4 µM (inactive)
- GI50 [16]: > 64.6 µM (inactive)
- GI50 [17]: 36.7 µM (inactive)
- GI50 [18]: 15.3 µM (inactive)
- GI50 [19]: 23.1 µM (inactive)
- GI50 [20]: 24.4 µM (inactive)

SMILES: Cc1nc2ccc(S(=O)(=O)O)cc2c(=O)n1-c1ccc(C(=O)NN2C(=O)C(Cl)C2c2ccccc2O)cc1 (stereo not given)
- GI50 [1]: > 100 µM (inactive)
- GI50 [2]: > 100 µM (inactive)
- GI50 [3]: > 100 µM (inactive)
- GI50 [4]: > 100 µM (inactive)
- GI50 [5]: > 100 µM (inactive)
- GI50 [6]: > 100 µM (inactive)
- GI50 [7]: > 100 µM (inactive)
- GI50 [8]: > 100 µM (inactive)
- GI50 [9]: > 100 µM (inactive)
- GI50 [10]: > 100 µM (inactive)
- GI50 [11]: > 100 µM (inactive)
- GI50 [12]: > 100 µM (inactive)
- GI50 [13]: > 100 µM (inactive)
- GI50 [14]: > 100 µM (inactive)
- GI50 [15]: > 100 µM (inactive)
- GI50 [16]: > 100 µM (inactive)
- GI50 [17]: > 100 µM (inactive)
- GI50 [18]: > 100 µM (inactive)
- GI50 [19]: > 100 µM (inactive)
- GI50 [20]: 53.5 µM (inactive)

SMILES: O=C1C=C(c2ccccc2)OC1C1Sc2ccccc2NC1=O (stereo not given)
- GI50 [1]: 11.4 µM (inactive)
- GI50 [2]: 4.01 µM (inactive)
- GI50 [3]: 4.5 µM (inactive)
- GI50 [4]: 12.7 µM (inactive)
- GI50 [5]: 7.26 µM (inactive)
- GI50 [6]: 10.9 µM (inactive)
- GI50 [7]: 9.73 µM (inactive)
- GI50 [8]: 7.6 µM (inactive)
- GI50 [9]: 11.5 µM (inactive)
- GI50 [10]: 18.7 µM (inactive)
- GI50 [11]: 10.6 µM (inactive)
- GI50 [12]: 8.51 µM (inactive)
- GI50 [13]: 7.73 µM (inactive)
- GI50 [14]: 7.89 µM (inactive)
- GI50 [15]: 4.9 µM (inactive)
- GI50 [16]: 8.09 µM (inactive)
- GI50 [17]: 3.06 µM (inactive)
- GI50 [18]: 3.97 µM (inactive)
- GI50 [19]: 5.11 µM (inactive)
- GI50 [20]: 1.04 µM (active)

SMILES: O=c1ccn(C2OC(CO)C(O)C2[Se]c2ccccc2)c(=O)[nH]1 (stereo not given)
- GI50 [1]: > 100 µM (inactive)
- GI50 [2]: > 100 µM (inactive)
- GI50 [3]: > 100 µM (inactive)
- GI50 [4]: > 100 µM (inactive)
- GI50 [5]: > 100 µM (inactive)
- GI50 [6]: > 100 µM (inactive)
- GI50 [7]: > 100 µM (inactive)
- GI50 [8]: 2.77 µM (inactive)
- GI50 [9]: > 100 µM (inactive)
- GI50 [10]: > 100 µM (inactive)
- GI50 [11]: > 100 µM (inactive)
- GI50 [12]: > 100 µM (inactive)
- GI50 [13]: > 100 µM (inactive)
- GI50 [14]: > 100 µM (inactive)
- GI50 [15]: > 100 µM (inactive)
- GI50 [16]: > 100 µM (inactive)
- GI50 [17]: > 100 µM (inactive)
- GI50 [18]: > 100 µM (inactive)
- GI50 [19]: > 100 µM (inactive)
- GI50 [20]: > 100 µM (inactive)

SMILES: CC(=O)OCc1ccc2oc(=O)c(C(=O)Oc3ccccc3)cc2c1
- GI50 [1]: > 100 µM (inactive)
- GI50 [2]: > 100 µM (inactive)
- GI50 [3]: 15.6 µM (inactive)
- GI50 [4]: > 100 µM (inactive)
- GI50 [5]: 35.2 µM (inactive)
- GI50 [6]: 16.2 µM (inactive)
- GI50 [7]: 86.9 µM (inactive)
- GI50 [8]: > 100 µM (inactive)
- GI50 [9]: 30.1 µM (inactive)
- GI50 [10]: > 100 µM (inactive)
- GI50 [11]: > 100 µM (inactive)
- GI50 [12]: > 100 µM (inactive)
- GI50 [13]: 30.4 µM (inactive)
- GI50 [14]: > 100 µM (inactive)
- GI50 [15]: 91.6 µM (inactive)
- GI50 [16]: > 100 µM (inactive)
- GI50 [17]: > 100 µM (inactive)
- GI50 [18]: > 100 µM (inactive)
- GI50 [19]: > 100 µM (inactive)
- GI50 [20]: > 100 µM (inactive)
